These results are taken from patent US11833232B2, “Deodorant compositions with natural wax” (The Procter & Gamble Company, priority 2020, dated 2023).

Structures are written as SMILES. Counter-ions that a name gives are not always drawn. A value given as a limit tells only on which side of the number the result lay.

Test [1] relates to two key underarm bacteria strains. Put plainly: Raw material microbial inhibition, verdict in words over both strains. The format is cell-based, Corynebacterium mucofaciens; Staphylococcus epidermidis. How it is done:
The Tier 1 Anaerobic MIC Assay test method to generate the data of Table 2 is described below.
(§1) Tier 1 Anaerobic MIC Assay
The data in Table 2 above was generated with the following test method.
3. Microbial Strains • Staphylococcus epidermidis (clinical isolate) • Corynebacterium mucofaciens (clinical isolate)
4. Test Procedure • Inoculum Preparation • Prior to testing streak organisms for isolation on BHI with 1% Tween 80 plates, wrap with parafilm and place in 37° C. incubator. When isolated colonies appear remove one representative colony from each plate and place each in 5 ml of BHI with 1% Tween 80 media. Incubate at 37° C. with shaking overnight. Inoculate 20 ml BHI with 1% Tween 80 (per 96 deep well plate to be tested) with 20 ul of the overnight culture (1-1000 dilution). • Master Plate Preparation • Compounds/formulations to be tested are diluted across a 96 deep well plate as shown below in Table 3 (for a 1% stock solution). […] 800 ul each 1% stock solution+positive control are added to wells C1 through H1. […] 400 ul is then removed from #1 well added to the #2 well and mixed. This is then continued across the plate resulting in a 50% dilution between wells across the plate (this can be easily accomplished with an automatic 8 channel Matrix pipette set to withdraw, dispense and mix).
In row A of a 96 deep well plate pipette 180 ul of sterile BHI with 1% Tween 80 as a negative growth control. All other wells receive 180 ul of inoculum. From the master plate introduce 20 ul to the corresponding row in the test plate using an 8-channel pipette. Loaded plates are placed on a plate shaker in the 37° C. incubator and incubated overnight. The next day read the O.D. 600 on a plate reader. The MIC is the last well from the right that has no bacterial growth.

The next test concerns C. mucofaciens. As to the kind of experiment: Tier 1 Anaerobic MIC Assay. The format is cell-based, Corynebacterium mucofaciens (clinical isolate). To be noted: raw material, 37° C. overnight, O.D. 600.
Text: as §1
(§2) The data in Table 2 above was generated with the following test method. The purpose of this assay is to determine if a compound or formulation has an antimicrobial effect in vitro.
(§3) It is understood that when not specifically noted in this procedure: • a) All materials, reagents and equipment required for this procedure are of appropriate design and condition of cleanliness and/or sterility as determined by their intended use. • b) The operator has been trained in aseptic technique and has been qualified to perform the procedure and accurately interpret the results. • c) All media required for this procedure was manufactured by a reputable commercial source egg. Difco, Merck etc. and has been stored and prepared as per manufacturer's instructions. • d) All routine laboratory controls, including but not limited to, media function and growth promotion tests, verification of sterility and use of positive and negative controls are being conducted.
(§4) Procedure: (All procedures performed in anaerobic chamber except where noted)
1. […]
(§5) In row A of a 96 deep well plate pipette 180 ul of sterile BHI with 1% Tween 80 as a negative growth control. […] The next day read the O.D. 600 on a plate reader. […]

A further test has as its system S. epidermidis. As to the kind of experiment: Tier 1 Anaerobic MIC Assay. The format is cell-based, Staphylococcus epidermidis (clinical isolate). To be noted: raw material, 37° C. overnight, O.D. 600.
Text: as §1, §2, §3, §4
1. […]
as §5

Consider `COC(=O)CCC(=O)OC` [Dimethyl Succinate 98% ETOH, Dimethyl Succinate], for which, in test [1], the “performance against the bacteria as raw materials (in words)” value (shortened to “performance against the bacteria”) is recorded as “performing well”.

As for `C=CCCCCCCCCC(=O)N[C@@H](Cc1ccccc1)C(=O)O` [Sepiwhite 40 mg/ml H2O ins], the “performance against the bacteria” value in test [1] is reported as “performing well”.

For `CCOC(=O)CC(O)(CC(=O)OCC)C(=O)OCC` [100% Triethyl citrate, Triethyl citrate], the “performance against the bacteria” value in test [1] is recorded as “performing well”.

Turning to `O=C([O-])[O-].[Ca+2]` [Ca Carbonate 50 mg/ml H2O ins, calcium carbonate], the “performance against the bacteria” value in test [1] is given as “performing moderately well”.

In the case of `N=C(N)c1ccc(OCCCCCCOc2ccc(C(=N)N)cc2)cc1` [Hexamidine 36 mg/ml H2O, Hexamidine], the “microbial inhibition concentration (MIC)” value in the test with C. mucofaciens is recorded as under 2 ppm; in the test with S. epidermidis, 7 ppm. Besides, the “performance against the bacteria” value in test [1] is reported as “perform particularly well”.

With `Cc1cc(CC(C)CC(C)(C)C)n(O)c(=O)c1.NCCO` (stereo not drawn) [100 mg/ml piroctone olamine in H2O, piroctone olamine], the “microbial inhibition concentration (MIC)” value in the test with C. mucofaciens was under 5 ppm; in the test on S. epidermidis, 10 ppm. The “performance against the bacteria” value in test [1] is reported as “perform particularly well”.

`C=CCc1ccc(O)c(OC)c1` [Eugenol 99% ETOH, Eugenol]: the “performance against the bacteria” value in test [1] is reported as “performing well”.

In the case of `CC(C)=CCCC(C)=CC=O` [Citral 96% ETOH, Citral], the “performance against the bacteria” value in test [1] was “performing well”.
